The target in assay [1] is T1, Phospho-MET in EBC-1 cells (Homo sapiens, UniProt P08581).
T1 construct: endogenous in cells; host or cells: EBC-1 (JCRB0820)
As to the kind of experiment: EBC-1 phospho-MET ELISA. Type of assay: cell-based. Conditions: 6 h compound, 40 ng/mL HGF 10 min, read-out: EBC1 pMET. As to the method: EBC-1 cells (catalog #JCRB0820) were obtained from the Japan Health Science Research Resources Bank, Osaka, Japan. Briefly, cells were grown in DMEM supplemented with 10% characterized fetal bovine serum (Invitrogen, Carlsbad, Calif.) at 37° C., 5% CO2, 95% humidity. Cells were allowed to expand until reaching 70-95% confluency at which point they were subcultured or harvested for assay use.
Fifteen thousand cells in DMEM supplemented with 0.5% characterized fetal bovine serum (FBS; Invitrogen, Carlsbad, Calif.) were added per well in a 96-well black clear bottom plate (Corning, Corning, N.Y.). Cells were then incubated overnight at 37 degrees Celsius, 5% CO2, 95% humidity. A serial dilution of test compound was dispensed into another 96-well black clear bottom plate (Corning, Corning, N.Y.) containing DMEM supplemented with 0.5% FBS. Diluted compound was then added to plates containing cells and incubated for 6 hours at 37 degrees Celsius, 5% CO2, 95% humidity. Cells were stimulated with 40 ng/mL HGF (R&D Systems, Minneapolis, Minn.) for 10 minutes, and then lysed. Phospho-MET in cell lysates was detected using the DuoSet IC Human Phospho-HGF R/c-MET ELISA (R&D Systems, Minneapolis, Minn.). Data was analyzed using Prism software (Graphpad, San Diego, Calif.) to calculate IC50 values.
For orientation: In an ELISA, binding on a coated surface is turned into a signal by an enzyme label.

Assay [2] deals with T2, Phospho-MET in MKN-45 cells (Homo sapiens, UniProt P08581).
T2 construct: endogenous in cells; host or cells: MKN-45 (JCRB0254)
T2 sequence (P08581 25-1390): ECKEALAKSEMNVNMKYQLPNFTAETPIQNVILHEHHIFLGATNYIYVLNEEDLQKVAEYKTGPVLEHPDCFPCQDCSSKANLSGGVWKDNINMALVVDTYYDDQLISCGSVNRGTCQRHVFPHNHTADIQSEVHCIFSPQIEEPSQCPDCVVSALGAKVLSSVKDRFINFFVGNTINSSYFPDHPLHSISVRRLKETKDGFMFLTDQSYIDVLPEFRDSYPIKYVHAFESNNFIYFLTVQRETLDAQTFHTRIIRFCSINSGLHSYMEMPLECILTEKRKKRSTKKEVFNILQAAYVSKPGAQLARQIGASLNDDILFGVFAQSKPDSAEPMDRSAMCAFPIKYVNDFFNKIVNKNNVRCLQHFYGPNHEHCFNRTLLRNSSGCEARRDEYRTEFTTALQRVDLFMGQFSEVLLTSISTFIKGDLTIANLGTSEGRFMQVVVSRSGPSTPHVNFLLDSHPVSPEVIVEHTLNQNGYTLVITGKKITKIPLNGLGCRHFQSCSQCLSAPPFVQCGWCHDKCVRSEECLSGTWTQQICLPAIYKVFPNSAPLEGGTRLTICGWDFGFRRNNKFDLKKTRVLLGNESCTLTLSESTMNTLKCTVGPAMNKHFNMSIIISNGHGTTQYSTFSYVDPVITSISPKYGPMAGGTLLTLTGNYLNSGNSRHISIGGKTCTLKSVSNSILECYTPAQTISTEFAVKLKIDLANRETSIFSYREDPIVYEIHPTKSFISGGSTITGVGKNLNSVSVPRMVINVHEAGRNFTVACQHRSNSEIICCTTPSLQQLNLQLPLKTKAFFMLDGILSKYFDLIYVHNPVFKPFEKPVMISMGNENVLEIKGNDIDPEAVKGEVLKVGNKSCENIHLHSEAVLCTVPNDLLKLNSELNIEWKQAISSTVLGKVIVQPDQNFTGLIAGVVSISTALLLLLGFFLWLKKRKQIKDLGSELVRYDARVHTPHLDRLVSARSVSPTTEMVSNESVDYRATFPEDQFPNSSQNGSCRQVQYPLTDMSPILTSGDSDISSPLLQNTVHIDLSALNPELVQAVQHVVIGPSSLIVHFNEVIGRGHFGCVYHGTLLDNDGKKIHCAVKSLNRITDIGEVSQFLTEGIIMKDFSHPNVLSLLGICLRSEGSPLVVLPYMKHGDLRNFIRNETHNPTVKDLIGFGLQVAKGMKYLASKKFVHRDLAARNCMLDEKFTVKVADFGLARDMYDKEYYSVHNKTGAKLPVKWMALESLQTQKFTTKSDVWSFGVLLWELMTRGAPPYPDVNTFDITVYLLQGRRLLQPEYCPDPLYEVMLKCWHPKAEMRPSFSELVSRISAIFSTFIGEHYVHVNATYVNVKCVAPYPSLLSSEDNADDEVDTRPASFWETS
Kind of assay: MKN-45 phospho-MET ELISA. Type of assay: cell-based. Conditions: 6 h compound, 40 ng/mL HGF 10 min, read-out: MKN-45 pMET. The method, then:
MKN-45 cells (catalog #JCRB0254) were obtained from the Japan Health Science Research Resources Bank, Osaka, Japan. Briefly, cells were grown in RPMI 1640 media supplemented with 10% characterized fetal bovine serum (Invitrogen, Carlsbad, Calif.) at 37° C., 5% CO2, 95% humidity. Cells were allowed to expand until reaching 70-95% confluency at which point they were subcultured or harvested for assay use.
Twenty-five thousand cells in RPMI-1640 supplemented with 10% characterized fetal bovine serum (Invitrogen, Carlsbad, Calif.) were added per well in a 96-well black clear bottom plate (Corning, Corning, N.Y.). Cells were then incubated overnight at 37 degrees Celsius, 5% CO2, 95% humidity. Media was then aspirated and cells were washed with PBS. A serial dilution of test compound was dispensed into another 96-well black clear bottom plate (Corning, Corning, N.Y.) containing serum-free RPMI-1640. Compound was added to plates containing cells and incubated for 6 hours at 37 degrees Celsius, 5% CO2, 95% humidity. Cells were stimulated with 40 ng/mL HGF (R&D Systems, Minneapolis, Minn.) for 10 minutes, and then lysed. Phospho-MET in cell lysates was detected using the DuoSet IC Human Phospho-HGF R/c-MET ELISA (R&D Systems, Minneapolis, Minn.). Data was analyzed using Prism software (Graphpad, San Diego, Calif.) to calculate IC50 values.

In a further assay the test system is A549 cells. As to the kind of experiment: A549 cell migration assay (HGF-stimulated). Type of assay: cell-based. The note with it: Homo sapiens, 40 ng/mL HGF, 48 h migration. As to the method: A549 cells (catalog # CCL-185) were obtained from the American Type Culture Collection (ATCC, Manassas, Va.). Briefly, cells were grown in DMEM supplemented with 10% characterized fetal bovine serum (Invitrogen, Carlsbad, Calif.) at 37 degrees Celsius, 5% CO2, 95% humidity. Cells were allowed to expand until reaching 70-95% confluency at which point they were subcultured or harvested for assay use.
Forty thousand cells in DMEM supplemented with 10% characterized fetal bovine serum (FBS; Invitrogen, Carlsbad, Calif.) were added per well in a 96-well black clear bottom Oris Collagen-Coated cell migration plate containing cell seeding stoppers (Platypus Technologies, Madison, Wis.). Cells were then incubated overnight at 37 degrees Celsius, 5% CO2, 95% humidity. Cell seeding stoppers were removed creating an area for cell migration in the center of each well of the plate. Media was replaced with DMEM supplemented with 0.5% FBS. […] A plate mask (Platypus Technologies, Madison, Wis.) that obscures each well except for the area for cell migration in the center of the well was attached to the bottom of the migration plate and fluorescence was detected using a fluorescent plate reader. Data was analyzed using Prism software (Graphpad, San Diego, Calif.) to calculate IC50 values.

Assay [3] deals with MET activity in MKN-45 xenograft tumors. Kind of assay: pMET inhibition in a MKN-45 xenograft pharmacodynamic model. Type of assay: in vivo. The note with it: nude mice, single oral 10 mg/kg dose, out to 8 h post dose. The method, then: To examine the in vivo modulation of MET activity by compounds of formula I, MKN-45 xenograft tumors were excised at varying time points following a single oral dose. Briefly, MKN-45 cells were obtained from the Japan Health Sciences Foundation and expanded in RPMI medium which was supplemented with 20% FBS, 1% PSG (Penicillin/Streptomycin/Glutamine). The growth environment was maintained in an incubator with a 5% CO2 atmosphere at 37° C. Cells were harvested and re-suspended using 50% serum-free media and 50% Matrigel® to generate a stock concentration of 5×10^6 cells/mL.
Seven to 8 week old female Harlan nude mice (Hsd:AthymicNude-Fox1nu) were injected with 200 μL of cell suspension subcutaneously, just below the right axilla. All procedures carried out in this experiment were conducted in compliance with all the laws, regulations and guidelines of the National Institutes of Health (NIH). Treatment began when the mean tumor burden was approximately 300 mg. All mice were dosed with test compound by oral gavage. Plasma and tumor samples were collected from three mice at each timepoint 2, 4, 6, 8, 12, 18, and 24 hours after dosing. […] Plasma levels of MET inhibitors were determined by mass spectrometer analysis.

Structures can show the parent of a compound that is named as a salt.

Data on three molecules can be found in US9012635B2, “Pyridone amides and analogs exhibiting anti-cancer and anti-proliferative activities” (Deciphera Pharmaceuticals, LLC, priority 2013, dated 2015).

T1 sequence (P08581 25-1390): as above

`Cn1cc(-c2cc(Oc3cc(F)c(NC(=O)c4cccn(-c5ccc(F)cc5)c4=O)cc3F)ccn2)cn1` [Example 1, N-(2,5-difluoro-4-((2-(1-methyl-1H-pyrazol-4-yl)pyridin-4-yl)oxy)phenyl)-1-(4-fluorophenyl)-2-oxo-1,2-dihydropyridine-3-carboxamide]: the values for the IC50 (in assay [1]; in assay [2]; with A549 cells) were at most 0.1 µM, at most 0.1 µM and 0.1 to 1 µM, respectively.

Take `CCOc1ccn(-c2ccc(F)cc2)c(=O)c1C(=O)Nc1cc(F)c(Oc2ccnc(-c3cnn(C)c3)c2)cc1F` [Example 2, N-(2,5-difluoro-4-(2-(1-methyl-1H-pyrazol-4-yl)pyridin-4-yloxy)phenyl)-4-ethoxy-1-(4-fluorophenyl)-2-oxo-1,2-dihydropyridine-3-carboxamide]: the IC50 (in assay [1]; in assay [2]; in the assay on A549 cells) was at most 0.1 µM each time. The “inhibition of cFOS mRNA levels” value in assay [3] was found to be 80%.

In the case of `O=C(Nc1cc(F)c(Oc2ccnc(-c3cnn(CCO)c3)c2)cc1F)c1cccn(-c2ccc(F)cc2)c1=O` [Example 3, N-(2,5-difluoro-4-((2-(1-(2-hydroxyethyl)-1H-pyrazol-4-yl)pyridin-4-yl)oxy)phenyl)-1-(4-fluorophenyl)-2-oxo-1,2-dihydropyridine-3-carboxamide hydrochloride], the IC50 in assay [1] and in assay [2] was at most 0.1 µM throughout.
